From PubChem BioAssay (NCI)
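GI50 = concentration required for 50% inhibition of growth. The concentration for full growth arrest is given as TGI.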

Tests used:
Assay in all cases: NCI anticancer screen, dose series, 384-well format
[1] = test system: A498 renal
[2] = test system: DU-145 prostate
[3] = test system: T-47D breast
[4] = test system: MDA-MB-468 breast
[5] = test system: OVCAR-4 ovarian
[6] = test system: A549 NSCLC
[7] = test system: COLO 205 colon
[8] = test system: HCT-15 colon
[9] = test system: UACC-257 melanoma
[10] = test system: EKVX NSCLC
[11] = test system: HOP-62 NSCLC
[12] = test system: CCRF-CEM leukemia
[13] = test system: LOX IMVI melanoma

SMILES: O=C(Nc1cccc(NS(=O)(=O)c2ccc(F)cc2)c1)c1ccc(-c2ccccc2)cc1
- GI50 [1]: 4.4 µM
- TGI [1]: 16.8 µM
- GI50 [2]: 4.44 µM
- TGI [2]: 26.5 µM
- GI50 [3]: 2.03 µM
- TGI [3]: 9.91 µM
- GI50 [4]: 3.1 µM
- TGI [4]: 8.43 µM
- GI50 [5]: 3.85 µM
- TGI [5]: 18.2 µM
- GI50 [6]: 4.07 µM
- TGI [6]: > 100 µM
- GI50 [7]: 4.33 µM
- TGI [7]: 17.2 µM
- GI50 [8]: 4.05 µM
- TGI [8]: 19.5 µM
- GI50 [9]: 4.02 µM
- TGI [9]: 16.7 µM
- GI50 [10]: 3.09 µM
- TGI [10]: 12.3 µM
- GI50 [11]: 3.85 µM
- TGI [11]: 11.6 µM
- GI50 [12]: 2.33 µM
- TGI [12]: 5.8 µM
- GI50 [13]: 3.31 µM
- TGI [13]: 11.4 µM
